Source: the NIST ThermoML archive (doi:10.1021/je8001199)
Numbers after ± are expanded uncertainties.

Key:
[1] = 200 kPa, Liquid
[2] = xn = mol fraction of the nth substance listed; details: 200 kPa, Liquid, x1 = 1

Row | mass density ([1]; 283.55 K) | mass density ([1]; 293.06 K) | mass density ([1]; 302.4 K) | mass density ([1]; 312.67 K) | mass density ([1]; 323.15 K) | mass density ([1]; 332.78 K) | mass density ([1]; 342.77 K) | mass density ([1]; 352.69 K) | mass density ([2]; 283.4 K) | mass density ([2]; 293.28 K) | mass density ([2]; 302.62 K) | mass density ([2]; 312.13 K) | mass density ([2]; 322.73 K) | mass density ([2]; 332.94 K) | mass density ([2]; 342.53 K) | mass density ([2]; 352.19 K) | Compound
1 | 905.993 ± 0.17 kg/m3 | 897.168 ± 0.17 kg/m3 | 888.38 ± 0.17 kg/m3 | 878.632 ± 0.18 kg/m3 | 868.618 ± 0.19 kg/m3 | 859.342 ± 0.19 kg/m3 | 849.651 ± 0.2 kg/m3 | 839.921 ± 0.2 kg/m3 | – | – | – | – | – | – | – | – | NCCN [ethane-1,2-diamine]
2 | – | – | – | – | – | – | – | – | 999.862 ± 0.12 kg/m3 | 998.365 ± 0.12 kg/m3 | 995.966 ± 0.12 kg/m3 | 992.723 ± 0.12 kg/m3 | 988.284 ± 0.12 kg/m3 | 983.292 ± 0.12 kg/m3 | 978.02 ± 0.12 kg/m3 | 972.189 ± 0.13 kg/m3 | O [water] + NCCN
